Experimental findings from patent US20230091225A1, “Bifunctional chimeric heterocyclic compounds for targeted degradation of androgen receptors and use thereof” (HINOVA PHARMACEUTICALS INC., priority 2019, published 2023) are described below.

The structures appear in SMILES notation. Where two headings read alike, the source gives them in different places.

This assay concerns the target T1, androgen receptor (AR) (Homo sapiens, UniProt P10275).
T1 sequence (P10275 1-920): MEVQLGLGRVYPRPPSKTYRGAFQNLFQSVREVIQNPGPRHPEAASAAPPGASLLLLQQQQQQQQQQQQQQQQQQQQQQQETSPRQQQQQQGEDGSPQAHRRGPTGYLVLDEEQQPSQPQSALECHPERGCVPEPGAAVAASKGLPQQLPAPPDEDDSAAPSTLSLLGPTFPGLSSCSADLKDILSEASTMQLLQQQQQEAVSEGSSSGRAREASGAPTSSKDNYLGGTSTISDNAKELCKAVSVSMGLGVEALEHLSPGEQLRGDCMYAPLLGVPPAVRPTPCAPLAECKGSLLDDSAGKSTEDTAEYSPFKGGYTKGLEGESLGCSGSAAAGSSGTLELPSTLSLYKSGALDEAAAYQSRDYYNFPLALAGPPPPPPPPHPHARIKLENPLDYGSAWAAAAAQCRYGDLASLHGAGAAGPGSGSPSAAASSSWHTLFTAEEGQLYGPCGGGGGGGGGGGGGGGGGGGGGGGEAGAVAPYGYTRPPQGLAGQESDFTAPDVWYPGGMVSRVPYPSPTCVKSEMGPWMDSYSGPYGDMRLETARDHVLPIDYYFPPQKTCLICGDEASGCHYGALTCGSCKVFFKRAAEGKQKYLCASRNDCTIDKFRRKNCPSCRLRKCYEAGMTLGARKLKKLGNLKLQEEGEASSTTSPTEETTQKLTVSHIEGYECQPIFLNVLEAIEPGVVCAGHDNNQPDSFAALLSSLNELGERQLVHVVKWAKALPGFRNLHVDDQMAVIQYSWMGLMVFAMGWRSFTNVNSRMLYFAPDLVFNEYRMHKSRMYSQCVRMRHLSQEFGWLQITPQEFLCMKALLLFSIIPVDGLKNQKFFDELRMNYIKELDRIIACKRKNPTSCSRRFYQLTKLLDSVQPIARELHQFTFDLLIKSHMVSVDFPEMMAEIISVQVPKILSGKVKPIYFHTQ
Kind of assay: Degradation of androgen receptor (AR) protein in VCaP cells by ELISA. It is filed as cell-based. To be noted: for Dmax: VCaP. On the technique in general: An ELISA detects its analyte on a solid surface through an enzyme-linked reagent.

Setting [1] is: AR degradation, VCaP cells, 16 h, ELISA, Table 3-1, read-out: DC50.
The mark [2] stands for this setting: AR degradation, VCaP cells, 16 h, ELISA, Table 3-1, read-out: Dmax (%).
Where [3] appears, read: AR degradation, VCaP cells, 16 h, ELISA, Table 3-2, read-out: DC50.
Setting [4] is: AR degradation, VCaP cells, 16 h, ELISA, Table 3-2, read-out: Dmax (%).

In the case of `COCCOc1cc(O[C@H]2CC[C@H](NC(=O)c3ccc(N4CCC(CN5CCC6(CC5)CN(c5ccc7c(c5)C(=O)N(C5CCC(=O)NC5=O)C7=O)C6)CC4)nn3)CC2)ccc1C#N` (some centres unmarked) [Compound 155], the DC50 (as a rule, the concentration at which degradation of the target reaches its halfway point) was less than 10 nM and the Dmax (in general, the largest share of the target that was removed) was more than 80%.
Take `CC1(C)[C@H](Oc2ccc(C#N)c(Cl)c2)C(C)(C)[C@H]1N1Cc2nc(C#CC3CCC(N4CCC5(CN(c6cc7c(cc6F)C(=O)N(C6CCC(=O)NC6=O)C7=O)C5)C4)CC3)ccc2C1=O` (some centres unmarked) [Compound 375]: the DC50 under setting [1] is less than 10 nM.
On to `N#Cc1ccc(O[C@H]2CC[C@H](NC(=O)c3cnc(N4CCC(CN5CCC6(CC5)CN(c5cc7c(cc5F)C(=O)N(C5CCC(=O)NC5=O)C7=O)C6)CC4)nc3)CC2)cc1Cl` (some centres unmarked) [Compound 268], for which the DC50 under setting [1] was less than 10 nM. The Dmax under setting [2] is more than 80%.
Consider `N#Cc1ccc(O[C@H]2CC[C@H](NC(=O)c3cnc(N4CCC(CN5CC6(CCN(c7cc8c(cc7F)C(=O)N(C7CCC(=O)NC7=O)C8=O)C6)C5)CC4)cn3)CC2)cc1Cl` (some centres unmarked) [Compound 188, N-((1r,4r)-4-(3-chloro-4-cyanophenoxy)cyclohexyl)-5-(4-((6-(2-(2,6-dioxopiperidin-3-yl)-6-fluoro-1,3-dioxoisoindolin-5-yl)-2,6-diazaspiro[3.4]octan-2-yl)methyl)piperidin-1-yl)pyrazine-2-carboxamide], for which, under setting [1], the DC50 is less than 10 nM. Under setting [2], the Dmax is more than 80%.
On to `N#Cc1ccc(O[C@H]2CC[C@H](NC(=O)c3ccc(N4CCN(C[C@@H]5[C@H]6CN(c7cc8c(cc7F)C(=O)N(C7CCC(=O)NC7=O)C8=O)C[C@@H]56)CC4)nn3)CC2)cc1Br` (stereo partly drawn) [Compound 126, N-((1r,4r)-4-(3-bromo-4-cyanophenoxy)cyclohexyl)-6-(4-(((1R,5S,6s)-3-(2-(2,6-dioxopiperidin-3-yl)-6-fluoro-1,3-dioxoisoindolin-5-yl)-3-azabicyclo[3.1.0]hexan-6-yl)methyl)piperazin-1-yl)pyridazine-3-amide], for which the greatest degradation seen (Dmax) was more than 80%. Also, the DC50 under setting [1] was less than 10 nM.
For `COc1cc(O[C@H]2C(C)(C)[C@H](N3Cc4nc(C#C[C@H]5C[C@H](N6CCN(c7cc8c(cc7F)C(=O)N(C7CCC(=O)NC7=O)C8=O)CC6)C5)ccc4C3=O)C2(C)C)ccc1C#N` (some centres unmarked) [Compound 393], the DC50 under setting [3] lay within 10 to 100 nM. In addition, the Dmax under setting [4] is more than 80%.
For `CC1(C)[C@H](Oc2ccc(C#N)c(Cl)c2)C(C)(C)[C@H]1N1Cc2nc(N3CCC(CN4CCN(c5cc6c(cc5F)C(=O)N(C5CCC(=O)NC5=O)C6=O)CC4)CC3)ncc2C1=O` (some centres unmarked) [Compound 382], the DC50 under setting [1] lay within 10 to 100 nM. Under setting [2], the Dmax was more than 80%.
`C[C@@H]1CN(C[C@@H]2[C@H]3CN(c4cc5c(cc4F)C(=O)N(C4CCC(=O)NC4=O)C5=O)C[C@@H]23)CCN1c1cnc(C(=O)N[C@H]2CC[C@H](Oc3ccc(C#N)c(Cl)c3)CC2)cn1` (stereo partly drawn) [Compound 264, N-((1r,4R)-4-(3-chloro-4-cyanophenoxy)cyclohexyl)-5-((2R)-4-((1R,5S,6s)-3-(2-(2,6-dioxopiperidin-3-yl)-6-fluoro-1,3-dioxoisoindolin-5-yl)-3-azabicyclo[3.1.0]n-hexane-6-yl)methyl-2-methylpiperazin-1-yl)pyrazine-2-carboxamide]: the DC50 under setting [1] lay in the range of 10 to 100 nM. Under setting [2], the Dmax fell in the range of 60 to 80%.
Take `CC1(C)[C@H](Oc2ccc(C#N)c(Cl)c2)C(C)(C)[C@H]1N1Cc2nc(C#CC3CCC(N4CC5(CCN(c6ccc7c(c6)C(=O)N(C6CCC(=O)NC6=O)C7=O)C5)C4)CC3)ccc2C1=O` (some centres unmarked) [Compound 368, 2-Chloro-4-((1r,3r)-3-(2-((4-(6-(2-(2,6-dioxopiperidin-3-yl)-1,3-dioxoisoindolin-5-yl)-2,6-diazaspiro[3.4]octane-2-yl)cyclohexyl)ethynyl)-5-oxo-5,7-dihydro-pyrrolo[3,4-b]pyridin-6-yl)-2,2,4,4-tetramethylcyclobutoxy) benzonitrile]: under setting [1], the DC50 is 100 to 300 nM. Besides, the Dmax under setting [2] fell in the range of 40 to 60%.
For `N#Cc1ccc(O[C@H]2CC[C@H](NC(=O)c3cnc(N4CCC(CN5CCC6(CC5)CN(c5ccc7c(c5)C(=O)N(C5CCC(=O)NC5=O)C7=O)C6)CC4)nn3)CC2)cc1Cl` (some centres unmarked) [Compound 279, N-((1r,4r)-4-(3-chloro-4-cyanophenoxy)cyclohexyl)-3-(4-((2-(2-(2,6-dioxopiperidin-3-yl)-1,3-dioxoisoindolin-5-yl)-2,7-diazaspiro[3.5]nonane-7-yl)methyl)piperidin-1-yl)-1,2,4-triazine-6-formamide], the DC50 is less than 10 nM and the Dmax was more than 80%.
Molecule `N#Cc1ccc(O[C@H]2CC[C@H](NC(=O)c3ccc(N4CCC(CN5CCC6(CC5)CN(c5cc7c(cc5F)C(=O)N(C5CCC(=O)NC5=O)C7=O)C6)CC4)nn3)CC2)cc1` (some centres unmarked) [Compound 132, N-((1r,4r)-4-(4-cyanophenoxy)cyclohexyl)-6-(4-((2-(2-(2,6-dioxapiperidin-3-yl)-6-fluoro-1,3-dioxoisoindolin-5-yl)-2,7-diazaspiro[3.5]nonan-7-yl)methyl)piperidin-1-yl)pyridazine-3-carboxamide] displayed a Dmax of 60 to 80%. Further, the DC50 under setting [1] was in the range of 10 to 100 nM.
The like results for `N#Cc1ccc(O[C@H]2CC[C@H](NC(=O)c3ncc(N4CC5(CCN(CC6CCN(c7cc8c(cc7F)C(=O)N(C7CCC(=O)NC7=O)C8=O)CC6)CC5)C4)cn3)CC2)cc1Cl` (some centres unmarked) [Compound 150] were, in that order, less than 40% and more than 300 nM.
In the case of `C[C@H]1CN(c2cnc(C(=O)N[C@H]3CC[C@H](Oc4ccc(C#N)c(Cl)c4)CC3)cn2)CCN1C[C@H]1[C@@H]2CN(c3cc4c(cc3F)C(=O)N(C3CCC(=O)NC3=O)C4=O)C[C@@H]21` (some centres unmarked) [Compound 169], the DC50 under setting [1] fell in the range of 10 to 100 nM. Moreover, under setting [2], the Dmax is 60 to 80%.
In the case of `CC1(C)C(NC(=O)c2ccc(N3CCC(N4CC5(CCN(c6cc7c(cc6F)C(=O)N(C6CCC(=O)NC6=O)C7=O)CC5)C4)CC3)nn2)C(C)(C)C1Oc1ccc(C#N)c(Cl)c1` (centres unmarked) [Compound 80, N-((1s,3s)-3-(3-chloro-4-cyanophenoxy)-2,2,4,4-tetramethylcyclobutyl)-6-(4-(7-(2-(2,6-dioxopiperidin-3-yl)-6-fluoro-1,3-dioxoisoindolin-5-yl)-2,7-diazaspiro [3.5]nonan-2-yl)piperidin-1-yl)pyridazine-3-formamide], the “Dmax (%)” value is “+++ (key: ++++: >80%; +++: 80%-60%; ++: 60%-40%; +: <40%)”. Besides, the DC50 (read-out: DC50) was 10 to 100 nM.
With `N#Cc1ccc(O[C@H]2CC[C@H](NC(=O)c3ccc(N4CC5(CN(C[C@@H]6[C@H]7CN(c8cc9c(cc8F)C(=O)N(C8CCC(=O)NC8=O)C9=O)C[C@@H]67)C5)C4)nn3)CC2)cc1Cl` (some centres unmarked) [Compound 92], under setting [1], the DC50 was less than 10 nM. Also, the Dmax under setting [2] is more than 80%.
In the case of `CC1(C)[C@H](Oc2ccc(C#N)c(Cl)c2)C(C)(C)[C@H]1N1Cc2nc(C#C[C@H]3C[C@H](N4CCN(c5cc6c(cc5F)C(=O)N(C5CCC(=O)NC5=O)C6=O)CC4)C3)ccc2C1=O` (some centres unmarked) [Compound 357], under setting [1], the DC50 is less than 10 nM. Besides, the Dmax under setting [2] is more than 80%.
In the case of `CC1(C)[C@H](Oc2ccc(C#N)c(Br)c2)C(C)(C)[C@H]1N1Cc2nc(C#C[C@H]3CC[C@H](N4CCN(c5ccc6c(c5)C(=O)N(C5CCC(=O)NC5=O)C6=O)CC4)CC3)ccc2C1=O` (some centres unmarked) [Compound 398], the DC50 under setting [3] is 10 to 100 nM. For the same molecule, the Dmax under setting [4] was more than 80%.
Take `N#Cc1ccc(OC2CCC(NC(=O)c3ccc(N4CCN(CC5[C@H]6CN(c7cc8c(cc7F)C(=O)N(C7CCC(=O)NC7=O)C8=O)C[C@@H]56)CC4)nn3)CC2)cc1C(F)(F)F` (some centres unmarked) [Compound 95]: the “Dmax (%)” value is “+++ (key: ++++: >80%; +++: 80%-60%; ++: 60%-40%; +: <40%)”. Also, for the setting “read-out: DC50”, the half-maximal degradation concentration (DC50) fell in the range of 10 to 100 nM.
Take `C[C@H]1CN(C[C@@H]2[C@H]3CN(c4cc5c(cc4F)C(=O)N(C4CCC(=O)NC4=O)C5=O)C[C@@H]23)CCN1c1ccc(C(=O)N[C@H]2CC[C@H](Oc3ccc(C#N)c(Cl)c3)CC2)nn1` (some centres unmarked) [Compound 170]: the DC50 under setting [1] is less than 10 nM. Also, under setting [2], the Dmax was more than 80%.
As to `CC1(C)[C@H](Oc2ccc(C#N)c(Cl)c2)C(C)(C)[C@H]1N1Cc2nc(C#CC3CCC(N4CCC5(CC4)CN(c4cc6c(cc4F)C(=O)N(C4CCC(=O)NC4=O)C6=O)C5)CC3)ccc2C1=O` (some centres unmarked) [Compound 363], the DC50 under setting [1] fell in the range of 10 to 100 nM. The Dmax under setting [2] fell in the range of 60 to 80%.
Regarding `N#Cc1ccc(O[C@H]2CC[C@H](NC(=O)c3nnc(N4CC5(CCN(C6CCN(c7ccc8c(c7)C(=O)N(C7CCC(=O)NC7=O)C8=O)CC6)CC5)C4)s3)CC2)cc1Cl` (some centres unmarked) [Compound 193, N-((1r,4r)-4-(3-chloro-4-cyanophenoxy)cyclohexyl)-5-(7-(1-(2-(2,6-dioxopiperidin-3-yl)-1,3-dioxoisoindolin-5-yl)piperidine-4-yl)-2,7-diazaspiro[3.5]nonan-2-yl)-1,3,4-thiadiazole-2-carboxamide], the DC50 under setting [1] was less than 10 nM. Moreover, under setting [2], the Dmax is more than 80%.
